≈ marks a conversion by molar mass, not a printed value.

These results are taken from patent US12605480B2, “Tough gel-based drug delivery compositions and methods thereof” (priority 2019, dated 2026).

A short description of data set [1]: Solubility of CORT in water and other solutions. Format: physicochemical. On the procedure:
The solubility of CORT in various water and other solutions were evaluated over a period of 24 h.

For data set [2] the following is noted: cited from earlier work.
The conditions of data set [3]: rat, in vivo; cited from earlier work.

With `CC1(C)O[C@@H]2C[C@H]3[C@@H]4CCC5=CC(=O)C=C[C@]5(C)[C@@]4(F)[C@@H](O)C[C@]3(C)[C@]2(C(=O)CO)O1` [Triamcinolone acetonide], the solubility at 24 h in data set [1] (DMSO:ddH2O 1:4, aqueous with cosolvent or surfactant or cyclodextrin, DMSO:ddH2O ratio of 1:4) is roughly 1000 µg/mL; in data set [1] (ddH2O and water-based solutions of 2% alginate and 12% acrylamide, 24 h), 10 to 100 µg/mL (≈ 23 to 230 µM). In data set [1] (water 37° C., input of the FE model, read-out: maximum solubility sol(water 37° C.) / Csol), the solubility was determined as 33 µg/mL (≈ 75.9 µM). Besides, the water solubility in data set [2] was 20 µg/mL (≈ 46 µM). In addition, the “acute toxicity (oral LD50)” value in data set [3] is on record as 1451 mg/kg.
